Results as given in patent publication US6723716B1, “7-acylamino-3-heteroarylthio-3-cephem carboxylic acid antibiotics and prodrugs thereof” (Essential Therapeutics, Inc., priority 1999, dated 2004).
In brackets after ≈: the same amount, converted by molar mass. Read-outs that look alike come from different tables or passages of the source.

What was measured:
S. aureus ATCC29213 = assay: Human serum binding effect: MIC with and without human serum; type: cell-based, Staphylococcus aureus; details: 1:1 human serum:MHB
Summary of the method: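 Serum binding was estimated as the ratio of S. aureus ATCC29213 MIC in 1:1 human serum:Mueller-Hinton broth to MIC without serum. Compounds were serially 2-fold diluted, and wells received an early-log-phase inoculum at 1×10^6 CFU/mL final. Inoculum size was checked by colony counts on TSA after overnight incubation at 35 °C.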

[1] = test system: S. aureus Col8A (Meth^S)(lac^−); assay: Broth microdilution MIC (NCCLS); type: cell-based; details: Staphylococcus aureus
Experimental: (§1) Compounds were evaluated for antimicrobial activity against a panel of bacterial strains using a broth microdilution assay performed as recommended by the NCCLS (1). The minimum inhibitory concentration (MIC) was defined as the lowest concentration of drug which prevented the growth of the bacteria.
(§2) For this primary panel, the assay was performed in Mueller-Hinton Broth (MHB) with a final bacterial inoculum of 5×10^5 CFU/mL (from an early-log phase culture) and a final volume of 100 μL. Control drugs, including imipenem, vancomycin, Penicillin G, dicloxacillin (vs. MSSA ATCC29213 only), and new compounds were prepared at a concentration equivalent to 2-fold the desired final concentration. Dilution of compounds were prepared directly in the plates by serial 2-fold dilution using a multichannel pipette. Positive and negative growth control were included in each plate.
(§3) The bacterial inocula were prepared as follows. For each strain one isolated colony was used to inoculate a volume of 8 mL of Mueller-Hinton broth and these cultures were incubated overnight (20 h) at 35° C. in a shaking incubator. At the exception of Enterococcus strains, culture were then diluted 1:10 and allowed to grow for an additional one hour at 35° C. in a shaking incubator. The inocula were prepared by diluting the early log-phase (1 h) cultures 1:1000 with fresh Mueller-Hinton broth. E. faecium and E. faecalis were prepared by diluting overnight cultures 1:333 and 1:666, respectively, with fresh Mueller-Hinton broth. A volume of 50 μL of the inocula was added to each well. […] The exact inocula were determined by applying 10 μL of 10-fold serial dilution of the bacterial suspensions on TSA. After overnight incubation at 35° C., colony forming units were manually counted.
(§4) Microtiter plates were incubated during 24 h at 35° C. and were read using a microtiterplate reader (Molecular Devices) at 650 nm as well as by visual observation using a microtiterplate reading mirror.

S. aureus ATCC 29213 = assay: Broth microdilution MIC (NCCLS); type: cell-based; details: Staphylococcus aureus
Experimental: as §1, §2, §3, §4

[2] = test system: S. haemolyticus 05 (Meth^R); assay: Broth microdilution MIC (NCCLS); type: cell-based; details: Staphylococcus haemolyticus
Experimental: as §1, §2, §3, §4

[3] = test system: S. aureus PC1 (Meth^S)(lac^+); assay: Broth microdilution MIC (NCCLS); type: cell-based; details: Staphylococcus aureus
Experimental: as §1, §2, §3, §4

P. aeruginosa ATCC 27853 = assay: Broth microdilution MIC (NCCLS); type: cell-based; details: Pseudomonas aeruginosa, ATCC27853
Experimental: as §1, §2, §3, §4

[4] = test system: S. aureus ATCC 33593 (Meth^R); assay: Broth microdilution MIC (NCCLS); type: cell-based; details: Staphylococcus aureus, ATCC33593
Experimental: as §1, §2, §3, §4

E. faecalis ATCC 29212 = assay: Broth microdilution MIC (NCCLS); type: cell-based; details: Enterococcus faecalis, ATCC29212
Experimental: as §1, §2, §3, §4

E. faecium VanA (Van^R) = assay: Broth microdilution MIC (NCCLS); type: cell-based; details: Enterococcus faecium
Experimental: as §1, §2, §3, §4

E. faecium A491 (Amp^R) = assay: Broth microdilution MIC (NCCLS); type: cell-based; details: Enterococcus faecium
Experimental: as §1, §2, §3, §4

[5] = test system: S. aureus Spain #356 (Meth^R); assay: Broth microdilution MIC (NCCLS); type: cell-based; details: Staphylococcus aureus, 24 h
Experimental: as §1, §2, §3, §4

E. coli ATCC25992 = assay: Broth microdilution MIC (NCCLS); type: cell-based; details: Escherichia coli
Experimental: as §1, §2, §3, §4

[6] = test system: S. aureus 76 (Meth^R)(lac^+); assay: Broth microdilution MIC (NCCLS); type: cell-based; details: Staphylococcus aureus
Experimental: as §1, §2, §3, §4

E. faecalis VanB (Van^R) = assay: Broth microdilution MIC (NCCLS); type: cell-based; details: Enterococcus faecalis
Experimental: as §1, §2, §3, §4

E. faecium ATCC 35667 = assay: Broth microdilution MIC (NCCLS); type: cell-based; details: Enterococcus faecium, ATCC35667
Experimental: as §1, §2, §3, §4

[7] = test system: S. aureus Col (Meth^R)(lac^−); assay: Broth microdilution MIC (NCCLS); type: cell-based; details: Staphylococcus aureus
Experimental: as §1, §2, §3, §4

[8] = test system: S. aureus ATCC 13709 (Meth^S); assay: Broth microdilution MIC (NCCLS); type: cell-based; details: Staphylococcus aureus
Experimental: as §1, §2, §3, §4

human serum proteins = assay: Serum binding determination by ultrafiltration/HPLC; type: in vitro ADME; details: by HPLC
Experimental: The more accurate measurement of binding of selected cephalosporin compounds was performed using HPLC as described below.
1. Serum is placed in a shaking water bath preheated to 37±2° C. for 5 to 10 minutes to heat serum to 37° C. Serum pH is measured and recorded, while serum is 37° C. using pH paper. Measurements are taken twice, 3 minutes apart. If the pH is not 7.4±0.4 then the pH is adjusted by blowing 5% CO2/95% O2 over the serum. After blowing for several minutes, serum is heated to 37° C. and measurements are taken twice, 3 minutes apart using pH paper to determine the pH. Store at 4° C. The serum is stable for 7 days. Always check the pH before each use.
2. Before any centrifugation, the centrifuge temperature must be adjusted to 25±2° C. Preheat the centrifuge by spinning for 45 minutes at the same speed to be used in the assay (1900 g) with two tubes of water in the rotor and the temperature set to 25° C. When the centrifuge stops immediately check the temperature of the tubes of water with a calibrated thermometer. The temperature of the tubes of water must be 25±2° C. […] Continue spinning and measuring the temperature and adjusting the setting until the temperature is 25±2° C.
3. Prepare blank ultrafiltrate by pipetting blank pH 7.4 serum into an Amicon Centrifree Micropartition devices, centrifuge: fixed angle rotor, 1900 g, 25° C. for 20 minutes. Heat ultrafiltrate in a shaking water bath preheated to 37° C. Measure ultrafiltrate pH and adjust to the pH of the serum (7.4±0.2).
4. Pipette 190 ul of blank ultrafiltrate into a set of labeled 1.7 mL polypropylene microfuge tubes for 3 of each level. Pipette 10 μL of the appropriate standard stock 50, 200, 1000 μg/mL to make standards 2.5, 10, and 50 μg/mL respectively. Vortex each tube well. One set of the standard samples are mixed 1:1 with 0.2 M acetic acid and injected onto the HPLC (MSTD). These samples are the membrane standards and will be used to compare to the other standards. Pipette 190 ul of ultrafiltrate and spike with 10 ul of whatever solution (e.g. water) the standards are prepared in to make the zero standard.
5. Pipette 475 μL of blank heated pH 7.4 serum into a set of labeled 1.7 mL polypropylene microfuge tubes for 2 of each (Serum A and Serum B). Pipette 25 μL of the 1000 μg/mL standard stock into each tube, vortex each tube well to make serum standard 50 μg/mL. Remove 100 μL of serum and deproteinate with 200 μL 4% TCA while vortexing to make serum time 0 (serum 50, T0). Place serum tubes in a shaking water bath at 37° C. for 10 minutes. Pipet 100 μL of serum out and deproteinate with 200 μL 4% TCA, to make serum time 10 min (serum 50, T10). Pipet 200 ul serum standard 50 μg/mL into an ultrafiltration device, which is not treated with TCA, to determine free drug in samples (Rat Serum 50).
6. Transfer serum and standard samples to labeled Amicon Centrifree Micropartition filters, and centrifuge: 1900 g, 25° C. for 10 minutes. The extracted serum samples (T0 and T10) are spun down and supernatant is loaded into HPLC vials.
7. 100 μL of ultrafiltrate sample and 100 μL of 0.2 M acetic acid were mixed together to stabilize the compound in ultrafiltrate.
8. Transfer entire stabilized ultrafiltrate solution to a labeled autoinjector HPLC vial cap with Teflon septa, and inject on HPLC.
Peak height or area is used in a weighted linear regression.

[9] = ATCC29213, S. aureus ATCC 29213, Mueller-Hinton broth, 24 h at 35° C., read-out: MIC
[10] = ATCC13709, S. aureus ATCC 13709 (Meth^S), read-out: MIC

SMILES	Human serum binding effect (ratio of MIC value determined with and without human serum added) (S. aureus ATCC29213)	MIC [1] [µg/mL]	MIC (S. aureus ATCC 29213; [9]) [µg/mL]	MIC [2] [µg/mL]	MIC [3] [µg/mL]	MIC (P. aeruginosa ATCC 27853) [µg/mL]	MIC [4] [µg/mL]	MIC (E. faecalis ATCC 29212) [µg/mL]	MIC (E. faecium VanA (Van^R)) [µg/mL]	MIC (E. faecium A491 (Amp^R)) [µg/mL]	MIC [5] [µg/mL]	MIC (E. coli ATCC25992) [µg/mL]	MIC [6] [µg/mL]	MIC (E. faecalis VanB (Van^R)) [µg/mL]	MIC (E. faecium ATCC 35667) [µg/mL]	MIC [7] [µg/mL]	MIC [8, 10] [µg/mL]	Serum Binding human (% of compound bound to serum) (human serum proteins) [%]	MIC (S. aureus ATCC 29213; ATCC29213, 24 h) [µg/mL]	MIC ([8]; ATCC13709) [µg/mL]
NCCSCc1nnc(SC2=C(C(=O)O)N3C(=O)[C@@H](NC(=O)/C(=N\O)c4nc(N)sc4Cl)[C@H]3SC2)s1 [Cmpd 10, (7R)-7-[(Z)-2-(2-amino-5-chlorothiazol-4-yl)-2-(hydroxyimino)acetamido]-3-(2-aminoethylthiomethyl-1,3,4-thiadiazol-5-ylthio)-3-cephem-4-carboxylic acid]	1	0.25 (≈ 0.41 µM)	0.5 (≈ 0.821 µM)	4 (≈ 6.57 µM)	0.5 (≈ 0.821 µM)	16 (≈ 26.3 µM)	2 (≈ 3.28 µM)	0.13 (≈ 0.213 µM)	2 (≈ 3.28 µM)	8 (≈ 13.1 µM)	4 (≈ 6.57 µM)	1 (≈ 1.64 µM)	2 (≈ 3.28 µM)	0.25 (≈ 0.41 µM)	1 (≈ 1.64 µM)	2 (≈ 3.28 µM)	0.13 (≈ 0.213 µM)	–	–	–
NCCSCc1ccncc1SC1=C(C(=O)O)N2C(=O)[C@@H](NC(=O)/C(=N\O)c3cccc(N)n3)[C@H]2SC1 [Cmpd 28, (7R)-7-[(Z)-2-(2-aminopyrid-6-yl)-2-(hydroxyimino)acetamido]-3-[4-(2-aminoethylthiomethyl)pyrid-3-ylthio]-3-cephem-4-carboxylic acid]	–	0.25 (≈ 0.445 µM)	0.5 (≈ 0.89 µM)	16 (≈ 28.5 µM)	0.5 (≈ 0.89 µM)	> 32	8 (≈ 14.2 µM)	0.5 (≈ 0.89 µM)	8 (≈ 14.2 µM)	> 32	8 (≈ 14.2 µM)	32 (≈ 57 µM)	8 (≈ 14.2 µM)	2 (≈ 3.56 µM)	4 (≈ 7.12 µM)	8 (≈ 14.2 µM)	0.13 (≈ 0.231 µM)	–	–	–
NCCSCc1nc(Cl)sc1SC1=C(C(=O)O)N2C(=O)[C@@H](NC(=O)/C(=N\O)c3cccc(N)n3)[C@H]2SC1 [Cmpd 29, (7R)-7-[(Z)-2-(2-aminopyrid-6-yl)-2-(hydroxyimino)acetamido]-3-[2-chloro-4-(2-aminoethylthiomethyl)-1,3-thiazol-5-ylthio]-3-cephem-4-carboxylic acid]	–	0.125 (≈ 0.208 µM)	–	2 (≈ 3.32 µM)	0.25 (≈ 0.415 µM)	> 32	1 (≈ 1.66 µM)	0.25 (≈ 0.415 µM)	4 (≈ 6.64 µM)	> 32	2 (≈ 3.32 µM)	16 (≈ 26.6 µM)	1 (≈ 1.66 µM)	0.5 (≈ 0.83 µM)	2 (≈ 3.32 µM)	1 (≈ 1.66 µM)	–	97	0.125 (≈ 0.208 µM)	0.125 (≈ 0.208 µM)
NCCNc1nc(CSCCN)c(SC2=C(C(=O)O)N3C(=O)[C@@H](NC(=O)/C(=N\O)c4nc(N)sc4Cl)[C@H]3SC2)s1 [Cmpd 16, (7R)-7-[(Z)-2-(2-amino-5-chlorothiazol-4-yl)-2-(hydroxyimino)acetamido]-3-[4-(2-aminoethylthiomethyl)-2-aminoethylamino-1,3-thiazol-5-ylthio]-3-cephem-4-carboxylic acid]	1	0.25 (≈ 0.375 µM)	0.13 (≈ 0.195 µM)	1 (≈ 1.5 µM)	0.13 (≈ 0.195 µM)	1 (≈ 1.5 µM)	1 (≈ 1.5 µM)	0.06 (≈ 0.0901 µM)	4 (≈ 6 µM)	16 (≈ 24 µM)	1 (≈ 1.5 µM)	4 (≈ 6 µM)	1 (≈ 1.5 µM)	0.06 (≈ 0.0901 µM)	0.5 (≈ 0.75 µM)	1 (≈ 1.5 µM)	0.13 (≈ 0.195 µM)	–	–	–
NCCSCc1nsc(SC2=C(C(=O)O)N3C(=O)[C@@H](NC(=O)/C(=N\O)c4nc(N)sc4Cl)[C@H]3SC2)n1 [Cmpd 12, (7R)-7-[(Z)-2-(2-amino-5-chlorothiazol-4-yl)-2-(hydroxyimino)acetamido]-3-[3-(2-aminoethylthiomethyl)-1,2,4-thiadiazol-5-ylthio]-3-cephem-4-carboxylic acid]	256	0.5 (≈ 0.821 µM)	0.5 (≈ 0.821 µM)	2 (≈ 3.28 µM)	0.13 (≈ 0.213 µM)	> 32	1 (≈ 1.64 µM)	–	1 (≈ 1.64 µM)	4 (≈ 6.57 µM)	1 (≈ 1.64 µM)	4 (≈ 6.57 µM)	1 (≈ 1.64 µM)	0.13 (≈ 0.213 µM)	0.5 (≈ 0.821 µM)	1 (≈ 1.64 µM)	0.25 (≈ 0.41 µM)	–	–	–
